# Experimental data taken from patent publication US20100168420A1, “Taxol Derivatives With Antitumor Activity” (priority 2007, published 2010).
# Marks after values point to notes of the source that are not given here.
# Key:
# human A549 NSCLC tumors [1] = assay: Therapeutic effects of SHR-110008 and Taxotere against xenografts of human A549 NSCLC tumors in nude mice (Test Example 1); settings: for RTV X ± SD / T/C (%) / T/C (%) (weighing method) / Weight of tumors (g) x ± SD: 14th day; for T/C (%): from RTV; for T/C (%) (weighing method): from weight of tumors; for Weight of tumors (g) x ± SD: weighing method; for Body weight (g) d0 / TV (X ± SD, mm^3) d0: d0: time of the first dosage; for Body weight (g) dn / TV (X ± SD, mm^3) dn: dn: 14th day after the first dosage
# Experimental: Numbers of animals: 9 mice in control group, 5 mice in medication administration team.
# Animals were adapted in animal house for 1 week and were hypodermic inoculated human A549 NSCLC tumors. After tumors grew to 100-300 mm^3, mice were randomly divided into teams of SHR-110008 and Taxotere(d0). The doses of SHR-110008 were 10 and 16 mg/kg, and the doses of Taxotere were 12 and 19 mg/kg, separately. The route of administration is intravenous injection. SHR-110008(10 mg/kg) and Taxotere (12 mg/kg) were administrated on d0, d4, d8, a total of three times. SHR-110008(16 mg/kg) and Taxotere (19 mg/kg) were administrated on d0, d7, a total of two times. The volume of tumors and weights of the mice were measured for 2-3 times per week. The calculation formula of the volume of tumor (V) is: V=1/2×a×b^2, a: length of tumor, b: width of tumor.
# human A549 NSCLC tumors [2] = assay: Therapeutic effects of SHR1021-47 against xenografts of human A549 NSCLC tumors in nude mice (Test Example 2); format: in vivo, BALB/cA-nude mice; settings: 12 mg/kg iv, d0, d7
# Experimental: Animal species: BALB/cA-nude mice.
# Numbers of animals: 12 mice in control group, 6 mice in medication administration team.
# Cell culture: Human A549 NSCLC tumor cells were cultured in vitro remaining on logarithmic growth phase.
# Transplantation: Take the prepared cells to inoculate subcutaneously to the nude mice.
# Inoculation: Take the tumor lump to inoculate in one side of oxter on the condition of asepsis.
# Grouping and dose design: Measure the diameter of transplantation tumor by sliding caliper. After tumors grew to 100-250 mm^3, mice were randomly divided into groups of Shr1021-47 (8 mg/kg, 12 mg/kg, 16 mg/kg) and Taxotere (12 mg/kg).
# Administration route and time: iv administration. Shr1021-47 and Taxotere were administrated on d0, d7, 2 times in all. Measure the volume of tumor and weigh the mice 2-3 times per week.
# Calculate the relative tumor volume (RTV) according to the measurements. The formula is: RTVI=Vt/V0. V0 refers to the volume of tumor on d0; Vt refers to the volume of tumor on every measurement. The index of antitumor activity is T/C(%). The formula is: T/C(%)=TRTV/CRTV×100, TRTV: RTV of treatment group, CRTV: RTV of control group.
# [3] = dn: 14th day after the first dosage
# [4] = under the suitable dose schedule, conclusion in words
smiles,measurement,setting,value
CC(=O)O[C@@]12CO[C@@H]1C[C@H](O)[C@@]1(C)C(=O)[C@H](O)C3=C(C)[C@@H](OC(=O)[C@H](O)[C@@H](NC(=O)OC(C)(C)C)c4ccccc4)C[C@@](O)([C@@H](OC(=O)c4ccccc4)[C@H]21)C3(C)C [Taxotere],RTV X ± SD,"human A549 NSCLC tumors [1]; 12 mg/kg i.v., d0, 4, 8",8.65 ± 5.83
same,T/C (%),"human A549 NSCLC tumors [1]; 12 mg/kg i.v., d0, 4, 8",39.1* %
same,T/C (%) (weighing method),"human A549 NSCLC tumors [1]; 12 mg/kg i.v., d0, 4, 8",51.7* %
same,Weight of tumors (g) x ± SD,"human A549 NSCLC tumors [1]; 12 mg/kg i.v., d0, 4, 8",1.25 ± 0.71 g
same,Body weight (g) d0,"human A549 NSCLC tumors [1]; 12 mg/kg i.v., d0, 4, 8",17.6 g
same,"TV (X ± SD, mm^3) d0","human A549 NSCLC tumors [1]; 12 mg/kg i.v., d0, 4, 8",140 ± 24 mm^3
same,Body weight (g) dn,"human A549 NSCLC tumors [1]; 12 mg/kg i.v., d0, 4, 8",14.1 g
same,"TV (X ± SD, mm^3) dn","human A549 NSCLC tumors [1]; 12 mg/kg i.v., d0, 4, 8",1149 ± 627 mm^3
same,RTV X ± SD,"human A549 NSCLC tumors [1]; 19 mg/kg i.v., d0, 7",7.13 ± 6.00
same,T/C (%),"human A549 NSCLC tumors [1]; 19 mg/kg i.v., d0, 7",32.2* %
same,T/C (%) (weighing method),"human A549 NSCLC tumors [1]; 19 mg/kg i.v., d0, 7",57.9* %
same,Weight of tumors (g) x ± SD,"human A549 NSCLC tumors [1]; 19 mg/kg i.v., d0, 7",1.09 ± 0.73 g
same,Body weight (g) d0,"human A549 NSCLC tumors [1]; 19 mg/kg i.v., d0, 7",17.7 g
same,"TV (X ± SD, mm^3) d0","human A549 NSCLC tumors [1]; 19 mg/kg i.v., d0, 7",134 ± 19 mm^3
same,Body weight (g) dn,"human A549 NSCLC tumors [1]; 19 mg/kg i.v., d0, 7",13.0 g
same,"TV (X ± SD, mm^3) dn","human A549 NSCLC tumors [1]; 19 mg/kg i.v., d0, 7",902 ± 736 mm^3
same,RTV X ± SD,human A549 NSCLC tumors [2]; 14th day,11.2 ± 6.0
same,T/C (%),"human A549 NSCLC tumors [2]; 14th day, TRTV/CRTV×100",78.3%
same,Body weight (g) d0,human A549 NSCLC tumors [2]; d0: time of the first dosage,20.7 g
same,"TV (X ± SD, mm^3) d0",human A549 NSCLC tumors [2]; d0: time of the first dosage,156 ± 20 mm^3
same,Body weight (g) dn,human A549 NSCLC tumors [2]; [3],15.6 g
same,"TV (X ± SD, mm^3) dn",human A549 NSCLC tumors [2]; [3],1679 ± 749 mm^3
CC(=O)O[C@@]12CO[C@@H]1C[C@H](O)[C@@]1(C)[C@@H]3OC(CN4C[C@@H]5C[C@H]4CO5)O[C@@H]3C3=C(C)[C@@H](OC(=O)[C@H](O)[C@@H](NC(=O)OC(C)(C)C)c4ccccc4)C[C@@](O)([C@@H](OC(=O)c4ccccc4)[C@H]21)C3(C)C (stereo partly drawn) [SHR-110008],RTV X ± SD,"human A549 NSCLC tumors [1]; 10 mg/kg i.v., d0, 4, 8",10.81 ± 1.79
same,T/C (%),"human A549 NSCLC tumors [1]; 10 mg/kg i.v., d0, 4, 8",48.8* %
same,T/C (%) (weighing method),"human A549 NSCLC tumors [1]; 10 mg/kg i.v., d0, 4, 8",38.6* %
same,Weight of tumors (g) x ± SD,"human A549 NSCLC tumors [1]; 10 mg/kg i.v., d0, 4, 8",1.59 ± 0.57 g
same,"TV (X ± SD, mm^3) d0","human A549 NSCLC tumors [1]; 10 mg/kg i.v., d0, 4, 8",129 ± 20 mm^3
same,"TV (X ± SD, mm^3) dn","human A549 NSCLC tumors [1]; 10 mg/kg i.v., d0, 4, 8",1383 ± 243 mm^3
same,RTV X ± SD,"human A549 NSCLC tumors [1]; 16 mg/kg i.v., d0, 7",4.41 ± 2.43
same,T/C (%),"human A549 NSCLC tumors [1]; 16 mg/kg i.v., d0, 7",19.9* %
same,T/C (%) (weighing method),"human A549 NSCLC tumors [1]; 16 mg/kg i.v., d0, 7",74.1* %
same,Weight of tumors (g) x ± SD,"human A549 NSCLC tumors [1]; 16 mg/kg i.v., d0, 7",0.67 ± 0.23 g
same,"TV (X ± SD, mm^3) d0","human A549 NSCLC tumors [1]; 16 mg/kg i.v., d0, 7",143 ± 38 mm^3
same,"TV (X ± SD, mm^3) dn","human A549 NSCLC tumors [1]; 16 mg/kg i.v., d0, 7",612 ± 340 mm^3
same,therapeutic effect compared with Taxotere,human A549 NSCLC tumors [1]; [4],better than that of Taxotere
same,toxicity compared with Taxotere,human A549 NSCLC tumors [1]; [4],better than that of Taxotere
